Earlier results on four compounds are cited in patent publication US7208487B2, “Compounds, compositions and methods” (Cytokinetics, Incorporated, priority 2002, dated 2007).

This series concerns A549 cells.
In the case of `O=c1[nH]cc(F)c(=O)[nH]1` [5-fluorouracil], the concentration for 50% growth inhibition (GI50) (usually the concentration that inhibits growth by half) is 1000 nM.
For the compound `COc1cccc2c1C(=O)c1c(O)c3c(c(O)c1C2=O)C[C@@](O)(C(=O)CO)C[C@@H]3O[C@H]1C[C@H](N)[C@H](O)[C@H](C)O1` [doxorubicin], the GI50 is 63 nM.
As to `NC(=O)NO` [hydroxyurea], the GI50 was 500000 nM.
Regarding `CC(=O)O[C@H]1C(=O)[C@@]2(C)[C@H]([C@H](OC(=O)c3ccccc3)[C@]3(O)C[C@H](OC(=O)[C@H](O)[C@@H](NC(=O)c4ccccc4)c4ccccc4)C(C)=C1C3(C)C)[C@]1(OC(C)=O)CO[C@@H]1C[C@@H]2O` [paclitaxel], the concentration for 50% growth inhibition (GI50) is 4 nM.
